In the supplement of paper PMC10307832:

How the values were obtained:
Assay in all cases: relative viability (nuclei count vs DMSO), 5 days (fraction); higher = more cells survive
Seliciclib + Linsitinib = compound: CC[C@H](CO)Nc1nc(NCc2ccccc2)c2ncn(C(C)C)c2n1 [Seliciclib] + C[C@]1(O)C[C@@H](c2nc(-c3ccc4ccc(-c5ccccc5)nc4c3)c3c(N)nccn32)C1 [Linsitinib] (partner 1 µM)
Outline: (§1)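 Relative viability divides the nuclei count in treated wells by that in vehicle wells. Lung cancer cell lines were seeded in 1536-well plates, dosed by pin tool the next day, and fixed and stained after 5 days in one step with final 0.05% Triton X-100, 1% formaldehyde and 1 ug/ml Hoechst. Dosing was a single drug or a fixed anchor-drug dose plus five library-drug doses (not always all listed) in √10 steps, and values are medians of duplicate plates imaged at 4×.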

Seliciclib + Foretinib = compound: CC[C@H](CO)Nc1nc(NCc2ccccc2)c2ncn(C(C)C)c2n1 [Seliciclib] + COc1cc2c(Oc3ccc(NC(=O)C4(C(=O)Nc5ccc(F)cc5)CC4)cc3F)ccnc2cc1OCCCN1CCOCC1 [Foretinib] (partner 0.25 µM)
Outline: as §1

Seliciclib + Luminespib = compound: CC[C@H](CO)Nc1nc(NCc2ccccc2)c2ncn(C(C)C)c2n1 [Seliciclib] + CCNC(=O)c1noc(-c2cc(C(C)C)c(O)cc2O)c1-c1ccc(CN2CCOCC2)cc1 [Luminespib] (partner 0.01 µM)
Outline: as §1

Seliciclib + Navitoclax = compound: CC[C@H](CO)Nc1nc(NCc2ccccc2)c2ncn(C(C)C)c2n1 [Seliciclib] + CC1(C)CCC(c2ccc(Cl)cc2)=C(CN2CCN(c3ccc(C(=O)NS(=O)(=O)c4ccc(N[C@H](CCN5CCOCC5)CSc5ccccc5)c(S(=O)(=O)C(F)(F)F)c4)cc3)CC2)C1 [Navitoclax] (partner 0.5 µM)
Outline: as §1

| Cell Line | relative viability (Seliciclib + Linsitinib; first compound 0.08 µM) | relative viability (Seliciclib + Linsitinib; first compound 0.253 µM) | relative viability (Seliciclib + Linsitinib; first compound 0.8 µM) | relative viability (Seliciclib + Linsitinib; first compound 2.53 µM) | relative viability (Seliciclib + Linsitinib; first compound 8 µM) | relative viability (Seliciclib + Foretinib; first compound 0.08 µM) | relative viability (Seliciclib + Foretinib; first compound 0.253 µM) | relative viability (Seliciclib + Foretinib; first compound 0.8 µM) | relative viability (Seliciclib + Foretinib; first compound 2.53 µM) | relative viability (Seliciclib + Foretinib; first compound 8 µM) | relative viability (Seliciclib + Luminespib; first compound 0.08 µM) | relative viability (Seliciclib + Luminespib; first compound 0.253 µM) | relative viability (Seliciclib + Luminespib; first compound 0.8 µM) | relative viability (Seliciclib + Luminespib; first compound 8 µM) | relative viability (Seliciclib + Luminespib; first compound 2.53 µM) | relative viability (Seliciclib + Navitoclax; first compound 0.08 µM) | relative viability (Seliciclib + Navitoclax; first compound 0.253 µM) | relative viability (Seliciclib + Navitoclax; first compound 0.8 µM) | relative viability (Seliciclib + Navitoclax; first compound 2.53 µM) | relative viability (Seliciclib + Navitoclax; first compound 8 µM) |
| --- | --- | --- | --- | --- | --- | --- | --- | --- | --- | --- | --- | --- | --- | --- | --- | --- | --- | --- | --- | --- |
| NCI-H358 | 0.613 | 0.634 | 0.617 | 0.609 | 0.445 | 0.684 | 0.597 | 0.752 | 0.665 | 0.457 | 0.31 | 0.385 | 0.21 | 0.186 | – | – | – | – | – | – |
| NCI-H522 | – | – | – | – | – | – | – | – | – | – | 1.05 | 0.954 | 1.15 | 0.938 | 1.12 | – | – | – | – | – |
| NCI-H650 | 0.833 | 0.925 | 1.17 | – | 0.897 | 1.03 | 1.03 | 0.912 | 0.842 | 0.856 | 0.807 | 0.757 | 0.921 | 0.709 | 0.727 | – | – | – | – | – |
| NCI-H661 | 0.545 | 0.542 | 0.543 | 0.518 | 0.451 | 1.03 | 0.936 | 0.975 | 0.945 | 0.636 | 0.9 | 1.07 | 0.853 | 0.756 | 0.809 | – | – | – | – | – |
| NCI-H1299 | 0.981 | 1.14 | 1.09 | 0.956 | 1 | 1.11 | 1.2 | 1.08 | 1.07 | 1.09 | – | – | – | – | – | 0.996 | 1.14 | 1.02 | 1.03 | 1 |
| NCI-H1563 | 1.15 | 0.925 | 1.11 | 1.21 | 1.12 | 0.922 | 0.803 | 0.932 | 0.941 | 0.86 | 0.479 | 0.518 | 0.526 | 0.453 | 0.49 | – | – | – | – | – |
| NCI-H1650 | – | – | – | – | – | 0.984 | 1.1 | 0.956 | 1.35 | 0.981 | 0.195 | 0.185 | 0.216 | 0.193 | 0.199 | 1.12 | 1.01 | 1.07 | 1.21 | 1.08 |
| NCI-H1703 | 0.675 | 0.869 | 0.767 | 0.989 | 0.712 | 0.352 | 0.362 | 0.323 | 0.298 | 0.342 | – | – | – | – | – | 0.957 | 0.862 | 1.05 | 1.21 | 0.87 |
| NCI-H1792 | 0.459 | 0.568 | 0.521 | 0.678 | 0.477 | – | – | – | – | – | 0.43 | 0.464 | 0.364 | 0.35 | – | 0.616 | 0.583 | 0.663 | 0.443 | 0.609 |
| NCI-H2170 | – | – | – | – | – | 0.936 | 0.934 | 1.01 | 1.09 | 0.968 | 0.738 | 0.552 | 0.729 | 0.714 | 1.04 | 0.671 | 0.338 | 0.596 | 0.667 | 0.523 |
| NCI-H2342 | – | – | – | – | – | 0.91 | 0.882 | 1.06 | 1.14 | 0.935 | 0.658 | 0.525 | 0.662 | 0.648 | 0.699 | – | – | – | – | – |
| SW 900 | – | – | – | – | – | 0.802 | 0.995 | 0.784 | 0.765 | 0.891 | 0.148 | 0.147 | 0.14 | 0.168 | 0.17 | – | – | – | – | – |
